Assay results: PMC8025548 (Carbohydrate Polymers, 2021)
Converted amounts (≈) assume the structure as drawn. Read-outs that look alike come from different tables or passages of the source.

How the values were obtained:
[1] = SBECD-assisted equilibrium solubilization of REM, assayed by HPLC; format: physicochemical; settings: for solubility at 24 h: pH 1.9
[2] = ref Larson, 2019, cited from earlier work

Compound: CCC(CC)COC(=O)[C@H](C)N[P@](=O)(OC[C@H]1O[C@@](C#N)(c2ccc3c(N)ncnn23)[C@H](O)[C@@H]1O)Oc1ccccc1 [REM, Remdesivir]
- solubility at 24 h ([1]; 20 % (w/w) aqueous SBECD solution): 7600 to 9700 µg/mL (≈ 12.6 to 16.1 mM)
- solubility at 24 h ([1]; 20 % aqueous SBECD solution): 8400 µg/mL (≈ 13.9 mM)
- improvement of the aqueous solubility of REM ([1]; with solubilizing carbohydrate (SBECD)): 300 fold
- dissolved REM ([2]; 20 % (w/w) aqueous solution of PEG-400): 3.3 mg/mL
- dissolved REM ([2]; 20 % (w/w) aqueous solution of SBECD): 8.5 mg/mL
- dissolved REM ([2]; 20 % (w/w) aqueous solution of Tween-80): 3.9 mg/mL
